Laboratory results from paper PMC9056950, “Synthesis and biochemical evaluation of cephalosporin analogues equipped with chemical tethers” (RSC Advances, 2020).
≈ marks a conversion by molar mass, not a printed value.

Legend:
[1] = test system: T1, S. aureus (NCTC 6571); parameters: species or system Staphylococcus aureus NCTC 6571; broth microdilution growth, OD600 after 16 h, MIC from GraphPad fit; settings: 16 h
T1 construct: NCTC 6571
Method: Stock solutions of each compound were prepared in 50% DMSO/water at ×100 the final concentration. In a 96-well plate, 2 μL of the test compounds were added to each well. Each plate included the positive control (750 μg mL^−1 chloramphenicol), the negative control (50% DMSO/water) and media only wells. To each test well was then added 198 μL of the required bacteria stock (OD 0.05). E. coli assays were carried out using LB broth, S. aureus were carried out using tryptic soy broth (TSB). Plates were incubated at 37 °C and the OD600 was measured (Epoch 2 Microplate Spectrophotometer, BioTek) every 30 min over a 17 h period. Tests were carried out in triplicate, the background absorbance was removed using reference wells, and the averages were determined. Dose curves were plotting using the OD600 after 16 h growth vs. compound concentration. MICs were defined as the minimum concentration of compound at which no significant growth was observed after 16 h incubation. MIC values were determined using GraphPad Prism (version 8.3.0). The activity of 1–12 was investigated with growth assays against Staphylococcus aureus (NCTC 6571). S. aureus is a virulent Gram-positive pathogen that can cause a wide range of infections in humans.[29,30] Each compound was tested at 400–6 μM concentrations, with lower concentrations tested as required.

[2] = molecular target: T2, PBP4 (Bacillus subtilis, UniProt P32959); assay: biochemical; parameters: gene pbpE; commercial protein (Generon); protein thermal shift assay, melting temperature change of PBP4; settings: read-out: Average DTm/°C
T2 sequence (P32959 1-451): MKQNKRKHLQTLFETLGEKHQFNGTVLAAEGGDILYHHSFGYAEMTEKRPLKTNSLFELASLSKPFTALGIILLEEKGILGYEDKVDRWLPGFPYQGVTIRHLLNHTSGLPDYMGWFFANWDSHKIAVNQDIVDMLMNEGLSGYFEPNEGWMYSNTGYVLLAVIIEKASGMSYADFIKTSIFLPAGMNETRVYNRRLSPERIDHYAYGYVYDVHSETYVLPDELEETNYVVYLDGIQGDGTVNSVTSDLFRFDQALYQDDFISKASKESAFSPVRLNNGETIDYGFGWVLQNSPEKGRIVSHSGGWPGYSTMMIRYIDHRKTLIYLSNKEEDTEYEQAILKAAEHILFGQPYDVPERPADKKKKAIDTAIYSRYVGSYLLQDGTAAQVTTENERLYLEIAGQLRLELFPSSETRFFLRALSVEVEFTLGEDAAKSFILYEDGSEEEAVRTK
Method: The thermal shift assay was carried out using the Protein Thermal Shift™ assay kit (Applied Biosystems). 3 μM of purified E. coli PBP3 was incubated with the β-lactam analogues at 300 μM concentration in a mixture containing the Protein Thermal Shift™ Dye. The samples were then heated in a StepOnePlus™ Real-Time PCR System from 25 to 95 °C at a rate of 1 °C min^−1. Tests were carried out in triplicate and the averages plotted as the negative first derivative vs. temperature. Reference wells, i.e. solutions consisting only of only PBP3 with dye, PBP3 only, and dye only, were used as controls. Melting temperature (Tm) values were determined with and without each compound, and the change in melting temperature (ΔTm) was obtained, Fig. 2. The thermal shift assay with PBP4 was carried out using the protocol described for PBP3, with the follow deriviatisation: 500 nM of purified Bacillus subtilis PBP4 was incubated with 50 μM of the β-lactam analogues. A thermal shift assay was used to investigate the binding of the cephalexin analogues to the therapeutic target, PBP, in vitro. This assay provides a fast and inexpensive method of detecting a ligand binding to a protein of interest. Briefly, the protein is gradually heated in the presence of a fluorescent dye that binds non-specifically to the hydrophobic surfaces. […]

CC1(C)S[C@@H]2[C@H](NC(=O)Cc3ccccc3)C(=O)N2[C@H]1C(=O)O [compound 11, penicillin]
MIC (best-fit) [1]: 0.0977 µM (≈ 0.0327 µg/mL)
ΔTm at 50 µM [2]: -0.746 °C
